Here are results for 25 compounds from US11267800B2, “Cyclohexyl acid triazole azines as LPA antagonists” (BRISTOL-MYERS SQUIBB COMPANY, priority 2017, dated 2022).

Where a name gives a salt, the structure may show the parent alone.

In this assay the target is T1, human LPA1 (Homo sapiens, UniProt Q92633).
T1 construct: expressed in transfected cells; host or cells: Chinese hamster ovary (CHO) cells
Description: LPA1 functional antagonist assay (calcium flux). The assay is classed as cell-based. The settings on record: CHO cells overexpressing human LPA1; inhibition of calcium flux induced by 10 nM LPA; read-out: hLPA1 IC50. The procedure, abridged: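 IC50 values come from 4-parameter logistic fits and mark 50% block of the calcium flux evoked by 10 nM LPA. Human LPA1-overexpressing CHO cells were calcium-dye loaded at 37 °C, then given test compound (0.08 nM–5 μM, 0.5% DMSO, HEPES-buffered HBSS with 0.1% fatty-acid-free BSA) for 20 min at room temperature before agonist.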

T1 sequence (Q92633 whole entry): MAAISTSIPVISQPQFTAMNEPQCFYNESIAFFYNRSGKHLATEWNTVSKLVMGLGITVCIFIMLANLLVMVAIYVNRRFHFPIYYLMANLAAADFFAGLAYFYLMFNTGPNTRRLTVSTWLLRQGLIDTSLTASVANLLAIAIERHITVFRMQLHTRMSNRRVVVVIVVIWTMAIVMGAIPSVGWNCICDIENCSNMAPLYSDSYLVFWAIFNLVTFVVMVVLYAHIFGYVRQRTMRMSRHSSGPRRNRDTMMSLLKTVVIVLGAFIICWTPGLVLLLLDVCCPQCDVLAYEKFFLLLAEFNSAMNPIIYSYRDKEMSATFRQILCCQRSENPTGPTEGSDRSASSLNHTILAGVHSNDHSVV

For `CCc1ncnc(NCc2c(-c3ccc(O[C@H]4CCC[C@H](C(=O)O)C4)c(C)n3)nnn2C)n1` [Example 194, (1S,3S)-3-((6-(5-(((4-Ethyl-1,3,5-triazin-2-yl)amino)methyl)-1-methyl-1H-1,2,3-triazol-4-yl)-2-methyl-pyridin-3-yl)oxy)cyclohexane-1-carboxylic acid], the IC50 amounted to 0.063 µM.
In the case of `CCCc1ncnc(NCc2c(-c3ccc(O[C@H]4CCC[C@H](C(=O)O)C4)c(C)n3)nnn2C)n1` [Example 195, (1S,3S)-3-((2-Methyl-6-(1-methyl-5-(((4-propyl-1,3,5-triazin-2-yl)amino)methyl)-1H-1,2,3-triazol-4-yl)pyridin-3-yl)oxy)cyclohexane-1-carboxylic acid] it was 0.225 µM; in that of `Cc1ncnc(NCc2c(-c3ccc(O[C@H]4CCC[C@H](C(=O)O)C4)c(C)n3)nnn2C)n1` [Example 196, (1S,3S)-3-((2-Methyl-6-(1-methyl-5-(((4-methyl-1,3,5-triazin-2-yl)amino)methyl)-1H-1,2,3-triazol-4-yl)pyridin-3-yl)oxy)cyclohexane-1-carboxylic acid], 2.19 µM; in that of `CCCCc1ncnc(NCc2c(-c3ccc(O[C@H]4CCC[C@H](C(=O)O)C4)c(C)n3)nnn2C)n1` [Example 199, (1S,3S)-3-((6-(5-(((4-Butyl-1,3,5-triazin-2-yl)amino)methyl)-1-methyl-1H-1,2,3-triazol-4-yl)-2-methyl-pyridin-3-yl)oxy)cyclohexane-1-carboxylic acid], 0.029 µM.
In the case of `Cc1nc(-c2nnn(C)c2CNc2ncnc(CC(C)C)n2)ccc1O[C@H]1CCC[C@H](C(=O)O)C1` [Example 200, (1S,3S)-3-((6-(5-(((4-Isobutyl-1,3,5-triazin-2-yl)amino)methyl)-1-methyl-1H-1,2,3-triazol-4-yl)-2-methyl-pyridin-3-yl)oxy)cyclohexane-1-carboxylic acid] it was 0.077 µM; in that of `COc1nc(NCc2c(-c3ccc(O[C@H]4CCC[C@H](C(=O)O)C4)c(C)n3)nnn2C)nc(C2CC2)n1` [Example 201, (1S,3S)-3-((6-(5-(((4-Cyclopropyl-6-methoxy-1,3,5-triazin-2-yl)amino)methyl)-1-methyl-1H-1,2,3-triazol-4-yl)-2-methylpyridin-3-yl)oxy)cyclohexane-1-carboxylic acid, bis TFA Salt], 0.105 µM.
In the case of `CCOc1nc(NCc2c(-c3ccc(O[C@H]4CCC[C@H](C(=O)O)C4)c(C)n3)nnn2C)nc(C2CC2)n1` [Example 202, (1S,3S)-3-((6-(5-(((4-Cyclopropyl-6-ethoxy-1,3,5-triazin-2-yl)amino)methyl)-1-methyl-1H-1,2,3-triazol-4-yl)-2-methylpyridin-3-yl)oxy) cyclohexane-1-carboxylic acid] it was 0.032 µM; in that of `CCc1nc(CC)nc(NCc2c(-c3ccc(O[C@H]4CCC[C@H](C(=O)O)C4)c(C)n3)nnn2C)n1` [Example 203, (1S,3S)-3-((6-(5-(((4,6-Diethyl-1,3,5-triazin-2-yl)amino)methyl)-1-methyl-1H-1,2,3-triazol-4-yl)-2-methyl-pyridin-3-yl)oxy)cyclohexane-1-carboxylic acid], 0.059 µM; in that of `CCC(C)Cc1ncnc(NCc2c(-c3ccc(O[C@H]4CCC[C@H](C(=O)O)C4)c(C)n3)nnn2C)n1` (stereo partly drawn) [Example 204, (1S,3S)-3-((2-Methyl-6-(1-methyl-5-(((4-(2-methylbutyl)-1,3,5-triazin-2-yl)amino)methyl)-1H-1,2,3-triazol-4-yl)pyridin-3-yl)oxy)cyclohexane-1-carboxylic acid], 0.106 µM.
As for `Cc1nc(-c2nnn(C)c2CNc2ncnc(CCC(C)C)n2)ccc1O[C@H]1CCC[C@H](C(=O)O)C1` [Example 205, (1S,3S)-3-((6-(5-(((4-Isopentyl-1,3,5-triazin-2-yl)amino)methyl)-1-methyl-1H-1,2,3-triazol-4-yl)-2-methyl-pyridin-3-yl)oxy)cyclohexane-1-carboxylic acid], the IC50 amounted to 0.04 µM.
In the case of `Cc1nc(-c2nnn(C)c2CNc2ncnc(CCC(C)(C)C)n2)ccc1O[C@H]1CCC[C@H](C(=O)O)C1` [Example 206, (1S,3S)-3-((6-(5-(((4-(3,3-Dimethylbutyl)-1,3,5-triazin-2-yl)amino)methyl)-1-methyl-1H-1,2,3-triazol-4-yl)-2-methylpyridin-3-yl)oxy)cyclohexane-1-carboxylic acid] it was 0.12 µM; in that of `Cc1nc(-c2nnn(C)c2CNc2ncnc(C3(C)CC3)n2)ccc1O[C@H]1CCC[C@H](C(=O)O)C1` [Example 207, (1S,3S)-3-((2-Methyl-6-(1-methyl-5-(((4-(1-methylcyclopropyl)-1,3,5-triazin-2-yl)amino)methyl)-1H-1,2,3-triazol-4-yl)pyridin-3-yl)oxy) cyclohexane-1-carboxylic acid], 0.053 µM.
In the case of `CCOc1ncnc(NCc2c(-c3ccc(O[C@H]4CCC[C@H](C(=O)O)C4)c(C)n3)nnn2C)n1` [Example 208, (1S,3S)-3-((6-(5-(((4-Ethoxy-1,3,5-triazin-2-yl)amino)methyl)-1-methyl-1H-1,2,3-triazol-4-yl)-2-methyl-pyridin-3-yl)oxy)cyclohexane-1-carboxylic acid] it was 0.089 µM; in that of `CCCCc1nc(C)nc(NCc2c(-c3ccc(O[C@H]4CCC[C@H](C(=O)O)C4)c(C)n3)nnn2C)n1` [Example 209, (1S,3S)-3-((6-(5-(((4-Butyl-6-methyl-1,3,5-triazin-2-yl)amino)methyl)-1-methyl-1H-1,2,3-triazol-4-yl)-2-methylpyridin-3-yl)oxy)cyclohexane-1-carboxylic acid], 0.062 µM.
In the case of `Cc1nc(-c2nnn(C)c2CNc2ncnc(OC3CC3)n2)ccc1O[C@H]1CCC[C@H](C(=O)O)C1` [Example 210, (1S,3S)-3-((6-(5-(((4-cyclopropoxy-1,3,5-triazin-2-yl)amino)methyl)-1-methyl-1H-1,2,3-triazol-4-yl)-2-methylpyridin-3-yl)oxy)cyclohexane-1-carboxylic acid] it was 0.102 µM.
`Cc1nc(-c2nnn(C)c2CNc2ncnc(OC3CCC3)n2)ccc1O[C@H]1CCC[C@H](C(=O)O)C1` [Example 211, (1S,3S)-3-((6-(5-(((4-cyclobutoxy-1,3,5-triazin-2-yl)amino)methyl)-1-methyl-1H-1,2,3-triazol-4-yl)-2-methylpyridin-3-yl)oxy)cyclohexane-1-carboxylic acid]: the IC50 amounted to 0.103 µM.
In the case of `CCCc1cnnc(NCc2c(-c3ccc(O[C@H]4CCC[C@H](C(=O)O)C4)c(C)n3)nnn2C)c1` [Example 212, (1S,3S)-3-((2-Methyl-6-(1-methyl-5-(((5-propylpyridazin-3-yl)amino)methyl)-1H-1,2,3-triazol-4-yl)pyridin-3-yl)oxy)cyclohexane-1-carboxylic acid] it was 0.093 µM.
In the case of `CCCc1ncnc(NCCc2c(-c3ccc(O[C@H]4CCC[C@H](C(=O)O)C4)c(C)n3)nnn2C)n1` [Example 213, (1S,3S)-3-((2-Methyl-6-(1-methyl-5-(2-((4-propyl-1,3,5-triazin-2-yl)amino)ethyl)-1H-1,2,3-triazol-4-yl)pyridin-3-yl)oxy)cyclohexane-1-carboxylic acid] it was 1.26 µM; in that of `Cc1nc(-c2nnn(C)c2CNc2cc(-c3ccccc3)cnn2)ccc1O[C@H]1CCC[C@H](C(=O)O)C1` [Example 214, (1S,3S)-3-((2-Methyl-6-(1-methyl-5-(((5-phenylpyridazin-3-yl)amino)methyl)-1H-1,2,3-triazol-4-yl)pyridin-3-yl)oxy)cyclohexane-1-carboxylic acid], 0.297 µM.
Regarding `Cc1nc(-c2nnn(C)c2CNc2cc(C3CC3)cnn2)ccc1O[C@H]1CCC[C@H](C(=O)O)C1` [Example 215, (1S,3S)-3-((6-(5-(((5-Cyclopropyl-pyridazin-3-yl)amino)methyl)-1-methyl-1H-1,2,3-triazol-4-yl)-2-methylpyridin-3-yl)oxy)cyclohexane-1-carboxylic acid], the IC50 is 0.278 µM.
In the case of `Cc1nc(-c2nnn(C)c2CNc2nnc(Cl)cc2C2CC2)ccc1O[C@H]1CCC[C@H](C(=O)O)C1` [Example 216, (1S,3S)-3-((6-(5-(((6-Chloro-4-cyclopropylpyridazin-3-yl)amino)methyl)-1-methyl-1H-1,2,3-triazol-4-yl)-2-methylpyridin-3-yl)oxy) cyclohexane-1-carboxylic acid] it was 0.379 µM.
As for `Cc1nc(-c2nnn(C)c2CNc2cc(C(C)C)cnn2)ccc1O[C@H]1CCC[C@H](C(=O)O)C1` [Example 217, (1S,3S)-3-((6-(5-(((5-Isopropyl-pyridazin-3-yl)amino)methyl)-1-methyl-1H-1,2,3-triazol-4-yl)-2-methylpyridin-3-yl)oxy)cyclohexane-1-carboxylic acid], the IC50 was 0.097 µM.
In the case of `Cc1nc(-c2nnn(C)c2CNc2nnccc2OC2CC2)ccc1O[C@H]1CCC[C@H](C(=O)O)C1` [Example 218, (1S,3S)-3-((6-(5-(((4-Cyclopropoxy-pyridazin-3-yl)amino)methyl)-1-methyl-1H-1,2,3-triazol-4-yl)-2-methylpyridin-3-yl)oxy)cyclohexane-1-carboxylic acid] it was 0.213 µM; in that of `Cc1nc(-c2nnn(C)c2CNc2cc(OC3CC3)cnn2)ccc1O[C@H]1CCC[C@H](C(=O)O)C1` [Example 219, (1S,3S)-3-((6-(5-(((5-Cyclopropoxy-pyridazin-3-yl)amino)methyl)-1-methyl-1H-1,2,3-triazol-4-yl)-2-methylpyridin-3-yl)oxy)cyclohexane-1-carboxylic acid], 0.138 µM.
In the case of `Cc1nc(-c2nnn(C)c2CNc2cncc(-c3ccccc3)n2)ccc1O[C@H]1CCC[C@H](C(=O)O)C1` [Example 220, (1S,3S)-3-((2-Methyl-6-(1-methyl-5-(((6-phenylpyrazin-2-yl)amino)methyl)-1H-1,2,3-triazol-4-yl)pyridin-3-yl)oxy)cyclohexane-1-carboxylic acid] it was 0.03 µM.
